Results on one compound are retold here after US11844791B2, “Use of antagonists and/or inverse agonists of CB1 receptors for preparing medicaments for treating fatigue post-viral fatigue syndrome” (FUNDACION HOSPITAL NACIONAL DE PARAPÉJICOS, priority 2020, dated 2023).

For series [1] the following is noted: as previously described; cited from earlier work.
The subject of series [2] is human motor system (motor cortex and spinal motor neurons). Kind of series: Transcranial magnetic stimulation: MEP amplitude in first dorsal interosseous muscle before and 24 hours after a single Rimonabant dose. Conditions: healthy subjects, 24 hours after single dose Rimonabant 20 mg; MEP at 120% RMT, FDI at rest; baseline 1.1±0.6 mV; paired T test p=0.02. The series is classed as in vivo. The method, then:
The aim of the present experiments was to use transcranial magnetic stimulation to test the effects of a single dose of 20 mg of Rimonabant on the excitability of motor cortex and of spinal motor neurons.
(§1) Neurophysiological examination was performed before and 24 hours after the administration of a single dose of 20 mg of Rimonabant.
Using transcranial magnetic stimulation (TMS), it was evaluated the thresholds for electromyographic responses in the first dorsal interosseous muscle (FDI) at rest and during voluntary contraction.
(§2) Nine healthy volunteers (mean age±S.D. 32.1±5.8 years) participated in all experiments. All the subjects gave their written informed consent.
Magnetic stimulation was performed using a high-power Magstim 200 magnetic stimulator (Magstim Co., Whitland, UK). A figure-of-eight coil with external loop diameters of 9 cm was held over the right motor cortex at the optimum scalp position to elicit motor responses in the contralateral first dorsal interosseous (FDI). The induced current flowed in a postero-anterior direction. Resting motor threshold (RMT) was defined as the minimum stimulus intensity that produced a liminal motor evoked response (about 50 μV in 50% of 10 trials) at rest. The main variables we test is the RMT and MEP amplitude before and 24 hours after the Rimonabant 20 mg. MEP amplitude was obtained at 120% RMT. […]

The test system of another series is healthy volunteers. Kind of series: Tolerability and adverse effects of a single Rimonabant dose in healthy volunteers. The series is classed as in vivo, human. The conditions noted are these: single dose 20 mg. The method, then:
as §1, §2
Hitherto, three subjects experienced agitation and anxiety (this effect lasted an average of 6 hours) and one suffered for nausea (for 24 hours).

`Cc1c(C(=O)NN2CCCCC2)nn(-c2ccc(Cl)cc2Cl)c1-c1ccc(Cl)cc1` [Rimonabant, N-(piperidino-1-yl)-5-(4-chlorophenyl)-1-(2,4-dichlorophenyl)-4-methylpyrazole-3-carboxamide]: the Blood-brain barrier penetration entry in series [1] was “penetrates the blood-brain barrier”. Also, the “MEP amplitude (motor system excitability), mean±S.D.” value in series [2] stood at 2.1±1.2 mV. In addition, in the series on healthy volunteers (healthy volunteers), the “Average duration of agitation and anxiety” value was 6 h; the Duration of nausea was determined as 24 h; the Effects on vigilance entry is reported as “moderate”. Moreover, in the series on healthy volunteers (of nine healthy volunteers), the “Subjects who experienced agitation and anxiety” value is “three”; the “Subjects who suffered nausea” value is “one”.
